The values below come from patent US10787452B2 (Vertex Pharmaceuticals Incorporated, priority 2012, dated 2020).

The experiment deals with HCT116 colorectal cancer cells. The experiment is described as follows: Cisplatin sensitization assay (96 h cell viability MTS).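 Note: compound concentration needed to lower the Cisplatin-alone IC50 by a set fold.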 The class given is cell-based. To be noted: 96 h MTS, compound plus Cisplatin. In short, it runs like this:
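Full-matrix combination: compound × cisplatin, 2-fold dilutions from 10 μM top final, co-added; 96 h, 37° C, 5% CO2; MTS read-out after 1 h.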
With `Nc1nn2cc(Cl)cnc2c1C(=O)Nc1cnccc1N1CCC(N2CC[S+]([O-])CC2)CC1` [I-N-100, 2-amino-6-chloro-N-(4-(4-(1-oxidothiomorpholino)piperidin-1-yl)pyridin-3-yl)pyrazolo[1,5-a]pyrimidine-3-carboxamide], the “Cisplatin Sensitization Assay” value is listed as “++ (Compounds with a Cisplatin sensitization value >0.02 μM but <0.2 μM are marked with “++.”)”.

Turning to `Nc1nn2cc(Cl)cnc2c1C(=O)Nc1cnccc1N1CCC(N2CCn3cncc3C2)CC1` [I-N-101, 2-amino-6-chloro-N-(4-(4-(5,6-dihydroimidazo[1,5-a]pyrazin-7(8H)-yl)piperidin-1-yl)pyridin-3-yl)pyrazolo[1,5-a]pyrimidine-3-carboxamide], the “Cisplatin Sensitization Assay” value is “++ (Compounds with a Cisplatin sensitization value >0.02 μM but <0.2 μM are marked with “++.”)”.

In the case of `Nc1nn2cc(Cl)cnc2c1C(=O)Nc1cnccc1N1CCC(N2CCn3ccnc3C2)CC1` [I-N-102, 2-amino-6-chloro-N-(4-(4-(5,6-dihydroimidazo[1,2-a]pyrazin-7(8H)-yl)piperidin-1-yl)pyridin-3-yl)pyrazolo[1,5-a]pyrimidine-3-carboxamide], the “Cisplatin Sensitization Assay” value is “++ (Compounds with a Cisplatin sensitization value >0.02 μM but <0.2 μM are marked with “++.”)”.

As to `Nc1nn2cc(Cl)cnc2c1C(=O)Nc1cnccc1N1CCC(N2CCOCC2)CC1` [I-N-104, 2-amino-6-chloro-N-(4-(4-morpholinopiperidin-1-yl)pyridin-3-yl)pyrazolo[1,5-a]pyrimidine-3-carboxamide], the “Cisplatin Sensitization Assay” value is on record as “+++ (Compounds with a Cisplatin sensitization value of <0.02 μM are marked with “+++.”)”.

Regarding `Nc1nn2cc(Cl)cnc2c1C(=O)Nc1cnccc1N1CCC(N2CCCC2)CC1` [I-N-105, 2-amino-6-chloro-N-(4-(4-(pyrrolidin-1-yl)piperidin-1-yl)pyridin-3-yl)pyrazolo[1,5-a]pyrimidine-3-carboxamide], the “Cisplatin Sensitization Assay” value is “+++ (Compounds with a Cisplatin sensitization value of <0.02 μM are marked with “+++.”)”.

With `CN(C)C1CCN(C2CCN(c3ccncc3NC(=O)c3c(N)nn4cc(Cl)cnc34)CC2)C1` (stereo not shown) [I-N-106, 2-amino-6-chloro-N-(4-(4-(3-(dimethylamino)pyrrolidin-1-yl)piperidin-1-yl)pyridin-3-yl)pyrazolo[1,5-a]pyrimidine-3-carboxamide], the “Cisplatin Sensitization Assay” value is “+++ (Compounds with a Cisplatin sensitization value of <0.02 μM are marked with “+++.”)”.

Turning to `COC1CN(C2CCN(c3ccncc3NC(=O)c3c(N)nn4cc(Cl)cnc34)CC2)C1` [I-N-107, 2-amino-6-chloro-N-(4-(4-(3-methoxyazetidin-1-yl)piperidin-1-yl)pyridin-3-yl)pyrazolo[1,5-a]pyrimidine-3-carboxamide], the “Cisplatin Sensitization Assay” value is listed as “+++ (Compounds with a Cisplatin sensitization value of <0.02 μM are marked with “+++.”)”.

On to `Nc1nn2cc(Cl)cnc2c1C(=O)Nc1cnccc1N1CCC(N2CC(F)(F)C2)CC1` [I-N-108, 2-amino-6-chloro-N-(4-(4-(3,3-difluoroazetidin-1-yl)piperidin-1-yl)pyridin-3-yl)pyrazolo[1,5-a]pyrimidine-3-carboxamide], for which the “Cisplatin Sensitization Assay” value is recorded as “+++ (Compounds with a Cisplatin sensitization value of <0.02 μM are marked with “+++.”)”.

On to `Nc1nn2cc(Cl)cnc2c1C(=O)Nc1cnccc1N1CCC(N2CCC23COC3)CC1` [I-N-109, N-(4-(4-(6-oxa-1-azaspiro[3.3]heptan-1-yl)piperidin-1-yl)pyridin-3-yl)-2-amino-6-chloropyrazolo[1,5-a]pyrimidine-3-carboxamide], for which the “Cisplatin Sensitization Assay” value was “+++ (Compounds with a Cisplatin sensitization value of <0.02 μM are marked with “+++.”)”.

On to `CN1CCN(c2c(NC(=O)c3c(N)nn4cc(F)cnc34)cncc2C(F)F)CC1` [I-N-111, 2-amino-N-(5-(difluoromethyl)-4-(4-methylpiperazin-1-yl)pyridin-3-yl)-6-fluoropyrazolo[1,5-a]pyrimidine-3-carboxamide], for which the “Cisplatin Sensitization Assay” value was “++ (Compounds with a Cisplatin sensitization value >0.02 μM but <0.2 μM are marked with “++.”)”.

In the case of `CN1CCN(c2c(C#N)cncc2NC(=O)c2c(N)nn3cc(F)cnc23)CC1` [I-N-113, 2-amino-N-(5-cyano-4-(4-methylpiperazin-1-yl)pyridin-3-yl)-6-fluoropyrazolo[1,5-a]pyrimidine-3-carboxamide], the “Cisplatin Sensitization Assay” value was “+ (Compounds with a Cisplatin sensitization value >0.2 μM but <5 μM are marked with “+.”)”.

As to `Nc1nn2cc(F)cnc2c1C(=O)Nc1cnccc1N1CCN2CCOC[C@@H]2C1` [I-N-115, (S)-2-amino-6-fluoro-N-(4-(hexahydropyrazino[2,1-c][1,4]oxazin-8(1H)-yl)pyridin-3-yl)pyrazolo[1,5-a]pyrimidine-3-carboxamide], the “Cisplatin Sensitization Assay” value is recorded as “+++ (Compounds with a Cisplatin sensitization value of <0.02 μM are marked with “+++.”)”.

Turning to `Nc1nn2cc(F)cnc2c1C(=O)Nc1cnccc1N1CCN2CCOC[C@H]2C1` [I-N-116, (R)-2-amino-6-fluoro-N-(4-(hexahydropyrazino[2,1-c][1,4]oxazin-8(1H)-yl)pyridin-3-yl)pyrazolo[1,5-a]pyrimidine-3-carboxamide], the “Cisplatin Sensitization Assay” value was “++ (Compounds with a Cisplatin sensitization value >0.02 μM but <0.2 μM are marked with “++.”)”.

In the case of `Nc1nn2cc(Cl)cnc2c1C(=O)Nc1cncc(F)c1N1CCN(C2COC2)CC1` [I-N-117, 2-amino-6-chloro-N-(5-fluoro-4-(4-(oxetan-3-yl)piperazin-1-yl)pyridin-3-yl)pyrazolo[1,5-a]pyrimidine-3-carboxamide], the “Cisplatin Sensitization Assay” value is “+++ (Compounds with a Cisplatin sensitization value of <0.02 μM are marked with “+++.”)”.

As for `Nc1nn2cc(F)cnc2c1C(=O)Nc1cncc(F)c1N1CCNCC1` [I-N-118, 2-amino-6-fluoro-N-(5-fluoro-4-(piperazin-1-yl)pyridin-3-yl)pyrazolo[1,5-a]pyrimidine-3-carboxamide], the “Cisplatin Sensitization Assay” value is “+++ (Compounds with a Cisplatin sensitization value of <0.02 μM are marked with “+++.”)”.

With `Nc1nn2cc(F)cnc2c1C(=O)Nc1cncc(C2CC2)c1N1CCN([C@@H]2CCOC2)CC1` [I-N-119, (R)-2-amino-N-(5-cyclopropyl-4-(4-(tetrahydrofuran-3-yl)piperazin-1-yl)pyridin-3-yl)-6-fluoropyrazolo[1,5-a]pyrimidine-3-carboxamide], the “Cisplatin Sensitization Assay” value is given as “++ (Compounds with a Cisplatin sensitization value >0.02 μM but <0.2 μM are marked with “++.”)”.

As for `Nc1nn2cc(F)cnc2c1C(=O)Nc1cncc(C2CC2)c1N1CCN([C@H]2CCOC2)CC1` [I-N-120, (S)-2-amino-N-(5-cyclopropyl-4-(4-(tetrahydrofuran-3-yl)piperazin-1-yl)pyridin-3-yl)-6-fluoropyrazolo[1,5-a]pyrimidine-3-carboxamide], the “Cisplatin Sensitization Assay” value is reported as “+++ (Compounds with a Cisplatin sensitization value of <0.02 μM are marked with “+++.”)”.

In the case of `Nc1nn2cc(F)cnc2c1C(=O)Nc1cncc(F)c1N1CCN(C2CCOCC2)CC1` [I-N-121, 2-amino-6-fluoro-N-(5-fluoro-4-(4-(tetrahydro-2H-pyran-4-yl)piperazin-1-yl)pyridin-3-yl)pyrazolo[1,5-a]pyrimidine-3-carboxamide], the “Cisplatin Sensitization Assay” value is on record as “+++ (Compounds with a Cisplatin sensitization value of <0.02 μM are marked with “+++.”)”.

As for `Nc1nn2cc(F)cnc2c1C(=O)Nc1cncc(F)c1N1CCN(C2CCOC2)CC1` (stereo not shown) [I-N-122, 2-amino-6-fluoro-N-(5-fluoro-4-(4-(tetrahydrofuran-3-yl)piperazin-1-yl)pyridin-3-yl)pyrazolo[1,5-a]pyrimidine-3-carboxamide], the “Cisplatin Sensitization Assay” value is “++ (Compounds with a Cisplatin sensitization value >0.02 μM but <0.2 μM are marked with “++.”)”.

For the compound `Cc1cncc(NC(=O)c2c(N)nn3cc(F)cnc23)c1N1CCN(C2CCOCC2)CC1` [I-N-123, 2-amino-6-fluoro-N-(5-methyl-4-(4-(tetrahydro-2H-pyran-4-yl)piperazin-1-yl)pyridin-3-yl)pyrazolo[1,5-a]pyrimidine-3-carboxamide], the “Cisplatin Sensitization Assay” value is given as “++ (Compounds with a Cisplatin sensitization value >0.02 μM but <0.2 μM are marked with “++.”)”.

Consider `Nc1nn2cc(F)cnc2c1C(=O)Nc1cncc(Cl)c1N1CCN(C2CCOC2)CC1` (stereo not shown) [I-N-124, 2-amino-N-(5-chloro-4-(4-(tetrahydrofuran-3-yl)piperazin-1-yl)pyridin-3-yl)-6-fluoropyrazolo[1,5-a]pyrimidine-3-carboxamide], for which the “Cisplatin Sensitization Assay” value was “+++ (Compounds with a Cisplatin sensitization value of <0.02 μM are marked with “+++.”)”.

For `Nc1nn2cc(F)cnc2c1C(=O)Nc1cncc(F)c1N1CCN([C@H]2CCOC2)CC1` [I-N-125, (S)-2-amino-6-fluoro-N-(5-fluoro-4-(4-(tetrahydrofuran-3-yl)piperazin-1-yl)pyridin-3-yl)pyrazolo[1,5-a]pyrimidine-3-carboxamide], the “Cisplatin Sensitization Assay” value is recorded as “+++ (Compounds with a Cisplatin sensitization value of <0.02 μM are marked with “+++.”)”.

`Nc1nn2cc(F)cnc2c1C(=O)Nc1cncc(Cl)c1N1CCNCC1` [I-N-126, 2-amino-N-(5-chloro-4-(piperazin-1-yl)pyridin-3-yl)-6-fluoropyrazolo[1,5-a]pyrimidine-3-carboxamide]: the “Cisplatin Sensitization Assay” value is “+++ (Compounds with a Cisplatin sensitization value of <0.02 μM are marked with “+++.”)”.

As for `COCCN1CCN(c2c(F)cncc2NC(=O)c2c(N)nn3cc(F)cnc23)CC1` [I-N-127, 2-amino-6-fluoro-N-(5-fluoro-4-(4-(2-methoxyethyl)piperazin-1-yl)pyridin-3-yl)pyrazolo[1,5-a]pyrimidine-3-carboxamide], the “Cisplatin Sensitization Assay” value was “+++ (Compounds with a Cisplatin sensitization value of <0.02 μM are marked with “+++.”)”.

As for `CN1CCC(C(=O)N2CCN(c3c(F)cncc3NC(=O)c3c(N)nn4cc(F)cnc34)CC2)CC1` [I-N-128, 2-amino-6-fluoro-N-(5-fluoro-4-(4-(1-methylpiperidine-4-carbonyl)piperazin-1-yl)pyridin-3-yl)pyrazolo[1,5-a]pyrimidine-3-carboxamide], the “Cisplatin Sensitization Assay” value is on record as “+++ (Compounds with a Cisplatin sensitization value of <0.02 μM are marked with “+++.”)”.
